From patent US20230026163A1, “ANTICANCER COMPOUND AND MEDICAL USE THEREOF” (ASCENTAWITS PHARMACEUTICALS, LTD., priority 2019, published 2023)
Where two headings read alike, the source gives them in different places.

Legend:
[1] = biological target: T1, P-glycoprotein (Homo sapiens, UniProt P08183); design: expressed in transfected cells; host or cells: MDCKII-MDR1 (MDCKII canine kidney cells); conditions: cited from earlier work
[2] = biological target: T1, P-glycoprotein; assay: in vitro; conditions: MDCK-MDR1; for Papp A→B at 2 h / Papp B→A at 2 h: dog
Protocol: MDCKII-MDR1 cells were incubated in cell culture flasks. The incubator was set at 37° C., 5% CO2, and a guaranteed relative humidity of 95%. When the cells reached 70 to 90% confluence, the cells may be seeded to transwells.
50 μL of the cell suspensions were added to the apical chambers of each well of the 96-well transwells at a final seeding density of 5.45×10^5 cells/cm^2.
MDCKII-MDR1 cells may be fully confluent and differentiated after 4 to 8 days of incubation. At this time, the cells may be applied to penetration test. The monolayer membrane resistance was measured with a resistance meter (Millipore), and the resistance per well was recorded. After the test, the transwells were returned to the incubator.
The transwells with MDCKII-MDR1 cells were taken from the incubator. The cell monolayers were rinsed twice with buffer and incubated at 37° C. for 30 minutes.
The rate of the compounds from an apical end to a basolateral end was determined. 75 μL of the buffer containing the test sample was added to each well of the apical chambers (apical end), and 235 μL of the buffer was added to each well of the basolateral chambers (basolateral end).
The rate of the compounds transporting from the basolateral end to the apical end was determined. 75 μL of the buffer was added to the apical chambers (apical end), and 235 μL of the buffer containing the test sample was added to the basolateral chamber (basolateral end).
After the apical chambers and the basolateral chambers were combined respectively, the transwells were incubated at 37° C. for 2 hours.
After incubation, 50 μL of the sample from each well of the apical chambers and the basolateral chambers of the transwells was transferred to new sample tubes respectively. 200 μL of acetonitrile (100 nM of Alprazolam, 200 nM of Labetalol, 200 nM of caffeine, and 2 μM of Ketoprofen) as an internal standard was added to the sample tubes, vortexed for 10 minutes, and centrifuged at 3220 g for 30 minutes. 100 μL of the supernatant was taken and diluted with an equal volume of water for LC-MS/MS analysis. Each sample was incubated in triplicate.
Peak-areas were calculated from ion chromatography results. The apparent permeability coefficient (Papp, unit: cm/s×10-6) of the compounds was calculated by the following formula.
In the formula, VA was the volume of the solution at the acceptor end (Ap→B1 was 0.235 mL, and B1→Ap was 0.075 mL), Area was the membrane area (0.143 cm^2) of 96-well transwell, time was the incubation time (unit: s), [drug]acceptor referred to the drug concentration of the acceptor end after incubation, and [drug]initial,donor referred to the initial concentration of the donor end before incubation.
Efflux ratio was calculated with the following formula.
In the formula, Papp(B_A) was the apparent permeability coefficient from the basolateral end to the apical end, and Papp(A-B) was the apparent permeability coefficient from the apical end to the basolateral end.
The recovery rate was calculated with the following formula.
In the formula, VA was the solution volume of the acceptor end (unit: mL), VD was the solution volume of the donor end (unit: mL), [drug]acceptor referred to the drug concentration of the acceptor end after incubation, and [drug]initial,donor referred to the initial concentration of the donor end before incubation.

[3] = tested on: H460 cell line; assay: Hypoxia-dependent cytotoxicity experiment (2 hours exposure, air or N2, CTG); assay type: cell-based; conditions: Homo sapiens, then 3 days
Protocol: To determine the effect of the compounds of the present disclosure on cancer cell proliferation, these compounds were tested for cancer cell anti-proliferative activity in a porous CTG-based assay. Cell growth was compared in the present (treatment groups) and the absence of the test compound. 10,000 cells/well/495 μL of medium was used to test the following cell line, a human tumor cell line of H460 non-small cell lung cancer. The cells were seeded on glass-inserts located in each well of 24-well plates with a density and medium as specified above. 24 hours later, the plates were divided into 2 groups, hypoxia (using N2) group and air group. TH-302 at the concentrations from 100, 10, 0.1 to 0.01 μM, and the test compounds at the concentrations from 10, 1, 0.1, 0.01, 0.001 to 0.0001 were added to each well (500 μL volume) of the treatment groups. The final DMSO concentration in each well was lower than or equal to 1%. The cells in the hypoxia group were incubated for 2 hours in an ELECTROTEK hypoxia workstation. The cells in the air group were incubated for 2 hours in a standard culture incubator. 2 hours later, the test compounds were removed from each well. The cells were washed with 500 μL of medium and incubated in 500 μL of fresh medium for 3 days. 3 days later, 200 μL of medium per well was discarded. 60 μL of CTG was added to the wells, and the plates were placed at room temperature for 15 minutes in the dark. 100 μL of medium from each well of the 24-well plates was transferred to 96-well plates. The chemiluminescence signal values were read with an M5 full-band multi-mode-function microplate reader, and integration=750 ms. The compounds of control 1 and control 2 were used as controls.

[4] = tested on: H460 non-small cell lung cancer; assay: Cytotoxicity test of human tumor cell line in vitro (CTG, 72 hours); assay type: cell-based; conditions: Homo sapiens, NCI-H460; H460, 72 hours exposure
Protocol: IC50 values were obtained by the following methods. The cancer cells were exposed to various concentrations of compounds for 72 hours. Following by washing steps, fresh medium was added to allow the growth of the cancer cells. The cancer cells were stained to obtain cell viability. Then, comparisons were made with the medium-only control.
Specifically, the exponentially growing cells were seeded in 96-well plates at a density of 2×10^3 cells/well, and 100 μL/well. The cells were incubated for 24 hours at 37° C., in 5% CO2, in 95% air, and 100% relative humidity. Next, 99 μL of culture medium was added. The compounds were dissolved in 100% DMSO at 200 times the desired final test concentration. Upon addition of compounds, the compounds were further diluted to 4 times the desired final concentration with a complete medium. Aliquots of 1 μL of compounds at specific concentration were added to the micro-wells containing 199 μL of medium to obtain the final compound concentrations as reported. After the compounds were added, the plates were incubated for an addition 72 hours at 37° C., in 5% CO2, in 95% air, and 100% relative humidity.
The plates to be test containing the cells were equilibrated at room temperature for 30 minutes, and 100 μL of medium per well was discarded. 100 μL of CTG reagent (CelltiterGlo Kit) was added to each well. The plates were placed in a fast-shaker to shake for 2 minutes, and placed at room temperature for 30 minutes in the dark. Chemoluminescence signal values were read with Envision instrument.

[5] = Maximal tolerance dose (MTD) experiment; assay type: in vivo, ICR mice; conditions: for MTD at 5 days: both sexes, ICR, mouse, in vivo, iv
Protocol: 18 ICR mice, 9 females/9 males, were selected for the experiment. According to gender and body weight, the mice were randomly divided into a 10 mg/kg group, a 20 mg/kg group, and a 40 mg/kg group of the S-configuration of compound 01, with 3 females/3 males in each group. By intravenous injection, the 10 mg/kg group of the S-configuration of compound 01 was administered with 1 mg/ml of the administration concentration, 10 ml/kg of the administration volume, and 10 mg/kg of the dose. The 20 mg/kg group containing the S-configuration of compound 01 was administered with 2 mg/ml of the administration concentration, 10 ml/kg of the administration volume, and 20 mg/kg of the dose. The 40 mg/kg group containing the S-configuration of compound 01 was administered with 4 mg/ml of the administration concentration, 10 ml/kg of the administration volume, and 40 mg/kg of the dose. The mice was administered once a day for 5 consecutive days, and recovered for 2 weeks after the last administration. The mice were closely observed for 2 hours after administration of the daily drug. The mice were observed twice a day in the morning and afternoon on the non-administration day. During the experiment, body weight and food intake were measured twice a week. The dead animals and all the survival animals were subjected to gross necropsy on the 14th day after the last administration. The diseased organic were grossly necropsied for histopathological examination.
18 ICR mice, 9 females/9 males, were selected for the experiment. According to gender and body weight, the mice were randomly divided into a 10 mg/kg group, a 20 mg/kg group, and a 40 mg/kg group of the R-configuration of compound 01, with 3 females/3 males in each group. By intravenous injection, the 10 mg/kg group of the R-configuration of compound 01 was administered with 1 mg/ml of the administration concentration, 10 ml/kg of the administration volume, and 10 mg/kg of the dose. The 20 mg/kg group of the R-configuration of compound 01 was administered with 2 mg/ml of the administration concentration, 10 ml/kg of the administration volume, and 20 mg/kg of the dose. The 40 mg/kg group of the R-configuration of compound 01 was administered with 4 mg/ml of the administration concentration, 10 ml/kg of the administration volume, and 40 mg/kg of the dose. The mice was administered once a day for 5 consecutive days, and recovered for 1 week after the last administration. […] To find the maximum tolerated dose, a second cycle of dosing was required. The doses were adjusted and administered for 5 consecutive days.
The mice were closely observed for 2 hours after administration of the daily drug. The mice were observed twice a day in the morning and afternoon on the non-administration day. During the experiment, body weight and food intake were measured twice a week. The dead animals and all the survival animals were subjected to gross necropsy on the 14th day after the last administration. The diseased organic were grossly necropsied for histopathological examination.

[6] = NCI-H460, H460, air, read-out: Normoxia: IC50
[7] = NCI-H460, H460, hypoxia (N2), read-out: N2: IC50

T1 sequence (P08183 whole entry): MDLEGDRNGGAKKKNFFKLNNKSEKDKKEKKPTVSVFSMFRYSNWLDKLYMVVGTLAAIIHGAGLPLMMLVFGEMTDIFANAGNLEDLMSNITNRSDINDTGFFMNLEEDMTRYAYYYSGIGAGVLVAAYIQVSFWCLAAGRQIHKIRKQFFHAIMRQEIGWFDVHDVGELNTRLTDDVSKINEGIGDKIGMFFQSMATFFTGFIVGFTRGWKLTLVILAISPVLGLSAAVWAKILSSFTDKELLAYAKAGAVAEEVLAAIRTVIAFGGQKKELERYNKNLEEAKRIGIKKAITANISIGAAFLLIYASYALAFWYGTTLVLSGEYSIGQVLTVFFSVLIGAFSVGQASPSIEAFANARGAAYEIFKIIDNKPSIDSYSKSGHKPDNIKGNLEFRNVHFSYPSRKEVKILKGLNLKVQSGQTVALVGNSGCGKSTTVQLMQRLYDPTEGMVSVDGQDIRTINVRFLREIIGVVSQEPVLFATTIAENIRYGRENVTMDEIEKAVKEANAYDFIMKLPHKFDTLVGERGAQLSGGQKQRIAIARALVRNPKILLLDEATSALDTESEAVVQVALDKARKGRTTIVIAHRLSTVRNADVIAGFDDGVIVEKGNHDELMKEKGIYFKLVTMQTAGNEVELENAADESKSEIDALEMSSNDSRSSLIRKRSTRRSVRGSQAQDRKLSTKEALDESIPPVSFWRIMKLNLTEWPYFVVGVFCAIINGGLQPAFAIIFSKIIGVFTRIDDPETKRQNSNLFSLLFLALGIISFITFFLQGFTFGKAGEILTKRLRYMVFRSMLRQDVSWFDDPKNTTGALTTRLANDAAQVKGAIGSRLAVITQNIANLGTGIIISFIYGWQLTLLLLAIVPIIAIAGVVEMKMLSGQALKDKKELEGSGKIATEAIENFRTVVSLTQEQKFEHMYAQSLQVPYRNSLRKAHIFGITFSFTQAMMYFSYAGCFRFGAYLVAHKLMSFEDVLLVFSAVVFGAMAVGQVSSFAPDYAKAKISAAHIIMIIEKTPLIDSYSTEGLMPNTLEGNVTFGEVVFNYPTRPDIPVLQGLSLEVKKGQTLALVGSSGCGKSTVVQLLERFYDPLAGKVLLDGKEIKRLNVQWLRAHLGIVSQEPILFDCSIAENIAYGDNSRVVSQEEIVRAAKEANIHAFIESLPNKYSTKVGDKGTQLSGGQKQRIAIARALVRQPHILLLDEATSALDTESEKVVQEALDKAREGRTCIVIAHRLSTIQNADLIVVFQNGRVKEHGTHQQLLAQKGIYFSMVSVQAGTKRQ

## Cc1ccc(NC(=O)c2ccc(CN3CCN(C)CC3)cc2)cc1Nc1nccc(-c2cccnc2)n1 [Imatinib, reference compound]
[1]
  P-gp substrate (known / earlier data and literature): known P-gp substrates
[2]
  Papp (A-B): 21.94 10^−6, cm/s
  Papp (B-A): 18.69 10^−6, cm/s
  Papp A→B at 2 h: 2.24 ×10⁻⁶ cm/s
  Papp B→A at 2 h: 24.1 ×10⁻⁶ cm/s

## COc1cc2nc(N3CCN(C(=O)c4ccco4)CC3)nc(N)c2cc1OC [Prazosin, reference compound]
[1]
  P-gp substrate (known / earlier data and literature): known P-gp substrates
[2]
  Papp (A-B): 28.47 10^−6, cm/s
  Papp (B-A): 14.14 10^−6, cm/s
  Papp A→B at 2 h: 14 ×10⁻⁶ cm/s
  Papp B→A at 2 h: 28.2 ×10⁻⁶ cm/s

## O=[N+]([O-])c1ccc(C(OP(=O)(N2CC2)N2CC2)C(F)(F)F)cc1 (stereo not drawn) [Control 2, reference compound]
[3]; [6]
  IC50: 15600 nM
[3]; [7]
  IC50: 7080 nM
[4]
  IC50: 659 nM

## CC(OP(=O)(N1CC1)N1CC1)c1ccc([N+](=O)[O-])c2ccccc12 (stereo not drawn) [Compound 26]
[3]; [6]
  IC50: 37.6 nM
[3]; [7]
  IC50: < 9.8 nM
[4]
  IC50: 92 nM

## O=[N+]([O-])c1c(COP(=O)(N2CC2)N2CC2)ccc2ccccc12 [Compound 03]
[3]; [6]
  IC50: 10000 nM
[3]; [7]
  IC50: 634 nM
[4]
  IC50: 806 nM

## O=[N+]([O-])c1ccc([C@@H](OP(=O)(N2CC2)N2CC2)C(F)(F)F)c2ccccc12 [R-configuration of compound 01]
[5]; 10, 20 and 40 mg/kg groups, first cycle
  Animal death after the first 5 consecutive days: no animal death
[5]; 10/80 mg/kg group (1st cycle 10 mg/kg, 2nd cycle 80 mg/kg)
  Animals died: 1 of the 6
[5]; 20/60 mg/ml group
  Animals died: 3 of the 6
[5]; 40/40 mg/kg group
  Animals died: 1 of the 6
[5]; ICR mice, intravenous injection, once a day for 5 consecutive days
  Maximum tolerated dose / MTD result: 20 to 40 mg/kg
[5]; after intravenous injection in mice
  Effect on animal body weight: increased slowly
[5]; after the recovery period
  Gross necropsy of the surviving animals: on obvious gross pathological changes
[5]; ICR mice, intravenous injection, first cycle, read-out: Maximum tolerated dose
  MTD at 5 days: > 40 mg/kg
[5]; ICR mice, intravenous injection, once a day for 5 consecutive days, read-out: Maximum tolerated dose / MTD result
  MTD at 5 days: 20 to 40 mg/kg
[5]; ICR mice, intravenous injection, second cycle, read-out: Maximum tolerated dose
  MTD at 5 days: < 40 mg/kg
[5]; each administration group
  Average food intake vs normal mice: no significant difference
[5]; first cycle, 10/80 mg/kg group
  Clinical symptoms after administration: in good condition
[5]; first cycle, 20/60 mg/kg group
  Clinical symptoms after administration: unsteady gait
[5]; first cycle, 40/40 mg/kg
  Clinical symptoms after administration: intermittent gait unsteady, accelerated breathing, and increased spontaneous activity
[5]; second cycle, 10/80 mg/kg
  Clinical symptoms after administration: abnormal gait, decreased muscle tension, decreased spontaneous activity, irregular breathing, unsteady gait, accelerated breathing, erect hair, spasm, deepened breathing, prone, and arched back
[5]; second cycle, 20/60 mg/kg
  Clinical symptoms after administration: intermittent deepened breathing, decreased spontaneous activity, unsteady gait, irregular breathing, increased spontaneous activity, accelerated breathing, unsteady gait, and prone
[5]; second cycle, 40/40 mg/kg
  Clinical symptoms after administration: intermittent unsteady gait, deepened breathing, accelerated breathing, increased spontaneous activity, and abnormal gait
